pEC50: −log10 of the molar value.

Experimental findings from paper PMC7732025 (Archives of pharmacal research, 2013) are described below.

The nature of data set [1]: Cytotoxic assay, primary human PBM cells. It is filed as cell-based. The settings on record: human, primary human PBM cells.
A short description of data set [2]: Cytotoxic assay, VERO cells. Particulars: African green monkey. It is filed as cell-based.
Another data set is described as follows: in vitro. The settings on record: human, CEM cells.
The subject of the next data set is primary human PBM cells. Kind of data set: Cytotoxic assay, primary human PBM cells. It is filed as cell-based. Particulars: primary human PBM cells (lymphocytes).
Another data set deals with VERO cells. The data set can be described thus: Cytotoxic assay, VERO cells. It is filed as cell-based.
A further data set deals with HIV-1. The data set can be described thus: Anti-HIV-1 assay in activated primary human PBM cells. The class given is cell-based, human immunodeficiency virus type 1. The settings on record: for pEC50: read-out: Anti-HIV-1 activity in human PBM cells EC50.

In the case of `CC(=NNC(=O)CN1c2c(-c3ccccc3)n[nH]c2-c2ccccc2S1(=O)=O)c1ccc(Br)s1` [5p, N′-(1-(5-bromothiophen-2-yl)ethylidene)-2-(5,5-dioxido-3-phenylbenzo[e]pyrazolo[4,3-c][1,2]thiazin-4(1H)-yl)acetohydrazide], the values for the 50% inhibitory concentration (IC50) at 5 day (in data set [1]; in data set [2]; in “in vitro”) were 10.5 µM, 18.1 µM and < 1 µM, respectively.
Consider `CC(=NNC(=O)CN1c2c(-c3ccccc3)n[nH]c2-c2ccccc2S1(=O)=O)c1cc2ccccc2oc1=O` [5k, 2-(5,5-Dioxido-3-phenylbenzo[e]pyrazolo[4,3-c][1,2]thiazin-4(1H)-yl)-N′-(1-(2-oxo-2H-chromen-3-yl)ethylidene)acetohydrazide], for which the IC50 – broadly, the point on the concentration scale where inhibition reaches its midpoint – at 5 day in data set [1] is 82.7 µM; in data set [2], > 100 µM; in the data set “in vitro”, 27.8 µM. Also, in the data set on primary human PBM cells, the “toxicity in primary human PBM cells (in words)” value is “non-toxic”. The “toxicity in VERO cells (in words)” value in the data set with VERO cells is reported as “non-toxic”.
Take `CC(=NNC(=O)CN1c2c(-c3ccccc3)n[nH]c2-c2ccccc2S1(=O)=O)c1ccc[nH]1` [5o, N′-(1-(1H-pyrrol-2-yl)ethylidene)-2-(5,5-dioxido-3-phenylbenzo[e]pyrazolo[4,3-c][1,2]thiazin-4(1H)-yl)acetohydrazide]: the IC50 at 5 day is 41.4 µM in data set [1], 22.3 µM in data set [2] and 20 µM in the data set “in vitro”.
In the same order, the values of `CC(=NNC(=O)CN1c2c(-c3ccccc3)n[nH]c2-c2ccccc2S1(=O)=O)c1ccc(C)s1` [5m, 2-(5,5-Dioxido-3-phenylbenzo[e]pyrazolo[4,3-c][1,2]thiazin-4(1H)-yl)-N′-(1-(5-methylthiophen-2-yl)ethylidene)acetohydrazide] are 62.3 µM, 30.6 µM and 13.8 µM.
In the case of `CC(=NNC(=O)CN1c2c(-c3ccccc3)n[nH]c2-c2ccccc2S1(=O)=O)c1sccc1Br` [5f, N′-(1-(3-bromothiophen-2-yl)ethylidene)-2-(5,5-dioxido-3-phenylbenzo[e]pyrazolo[4,3-c][1,2]thiazin-4(1H)-yl)acetohydrazide], the IC50 at 5 day was 42.8 µM in data set [1], > 100 µM in data set [2] and 19.6 µM in “in vitro”.
For the molecule `CC(=NNC(=O)CN1c2c(-c3ccccc3)n[nH]c2-c2ccccc2S1(=O)=O)c1ccc(C)o1` [5s, 2-(5,5-Dioxido-3-phenylbenzo[e]pyrazolo[4,3-c][1,2]thiazin-4(1H)-yl)-N′-(1-(5-methylfuran-2-yl)ethylidene)acetohydrazide], the “anti-HIV-1 activity (in words)” value with HIV-1 is “inactive”. Also, the results for the IC50 at 5 day (in data set [1]; in data set [2]; in the data set “in vitro”) were 53.8 µM, > 100 µM and 15.4 µM, respectively.
As to `CC(=NNC(=O)CN1c2c(-c3ccccc3)n[nH]c2-c2ccccc2S1(=O)=O)c1sccc1Cl` [5e, N′-(1-(3-chlorothiophen-2-yl)ethylidene)-2-(5,5-dioxido-3-phenylbenzo[e]pyrazolo[4,3-c][1,2]thiazin-4(1H)-yl)acetohydrazide], the IC50 at 5 day was 69.1 µM in data set [1], > 100 µM in data set [2] and 16.8 µM in the data set “in vitro”. For the same molecule, the “toxicity in primary human PBM cells (in words)” value in the data set with primary human PBM cells is recorded as “non-toxic”. Also, the “toxicity in VERO cells (in words)” value in the data set with VERO cells is “non-toxic”.
For the molecule `CC(=NNC(=O)CN1c2c(-c3ccccc3)n[nH]c2-c2ccccc2S1(=O)=O)c1ccc2c(c1)OCCO2` [5q, N′-(1-(2,3-dihydrobenzo[b][1,4]dioxin-6-yl)ethylidene)-2-(5,5-dioxido-3-phenylbenzo[e]pyrazolo[4,3-c][1,2]thiazin-4(1H)-yl)acetohydrazide], the values for the IC50 at 5 day (in data set [1]; in data set [2]; in “in vitro”) were 67.1 µM, > 100 µM and 23.9 µM, respectively. Besides, the “toxicity in primary human PBM cells (in words)” value in the data set with primary human PBM cells is “non-toxic”. For the same molecule, the “toxicity in VERO cells (in words)” value with VERO cells was “non-toxic”.
In the case of `CC(=NNC(=O)CN1c2c(-c3ccccc3)n[nH]c2-c2ccccc2S1(=O)=O)c1nccs1` [5u, 2-(5,5-Dioxido-3-phenylbenzo[e]pyrazolo[4,3-c][1,2]thiazin-4(1H)-yl)-N′-(1-(thiazol-2-yl)ethylidene)acetohydrazide], the IC50 at 5 day in data set [1] was 15.7 µM; in data set [2] it was 43.1 µM; in “in vitro”, 8.2 µM.
With `CC(=NNC(=O)CN1c2c(-c3ccccc3)n[nH]c2-c2ccccc2S1(=O)=O)c1sccc1C` [5b, 2-(5,5-Dioxido-3-phenylbenzo[e]pyrazolo[4,3-c][1,2]thiazin-4(1H)-yl)-N′-(1-(3-methylthiophen-2-yl)ethylidene)acetohydrazide], the negative-log EC50 (pEC50) (commonly the EC50 on a negative log10 scale, so that one unit is a factor of ten) in the data set on HIV-1 is 4.94. The values for the IC50 at 5 day (in data set [1]; in data set [2]; in “in vitro”) were 56.2 µM, 75.3 µM and 13.1 µM, respectively.
For the molecule `CC(=NNC(=O)CN1c2c(-c3ccccc3)n[nH]c2-c2ccccc2S1(=O)=O)c1ccncc1` [5v, 2-(5,5-Dioxido-3-phenylbenzo[e]pyrazolo[4,3-c][1,2]thiazin-4(1H)-yl)-N′-(1-(pyridin-4-yl)ethylidene)acetohydrazide], the “anti-HIV-1 activity (in words)” value in the data set on HIV-1 is “inactive”. For the same molecule, the IC50 at 5 day in data set [1] stood at 75.6 µM; in data set [2], 84.1 µM; in “in vitro” it was 34.5 µM.
In the case of `CC(=NNC(=O)CN1c2c(-c3ccccc3)n[nH]c2-c2ccccc2S1(=O)=O)c1cccs1` [5a, 2-(5,5-Dioxido-3-phenylbenzo[e]pyrazolo[4,3-c][1,2]thiazin-4(1H)-yl)-N′-(1-(thiophen-2-yl)ethylidene)acetohydrazide], the pEC50 with HIV-1 was 4.95. The values for the IC50 at 5 day (in data set [1]; in data set [2]; in “in vitro”) were 88 µM, 77.2 µM and 23.3 µM, respectively. Also, the “toxicity in primary human PBM cells (in words)” value in the data set with primary human PBM cells is “no toxicity”. The “toxicity in VERO cells (in words)” value with VERO cells was “no toxicity”.
With `CC(=NNC(=O)CN1c2c(-c3ccccc3)n[nH]c2-c2ccccc2S1(=O)=O)c1cc(C)sc1C` [5d, N′-(1-(2,5-dimethylthiophen-3-yl)ethylidene)-2-(5,5-dioxido-3-phenylbenzo[e]pyrazolo[4,3-c][1,2]thiazin-4(1H)-yl)acetohydrazide], the figures for the half-maximal inhibitory concentration (IC50) at 5 day (in data set [1]; in data set [2]; in “in vitro”) were 36.5 µM, 44.4 µM and 17.6 µM, respectively.
On to `CC(=NNC(=O)CN1c2c(-c3ccccc3)n[nH]c2-c2ccccc2S1(=O)=O)c1cc(C)cs1` [5j, 2-(5,5-Dioxido-3-phenylbenzo[e]pyrazolo[4,3-c][1,2]thiazin-4(1H)-yl)-N′-(1-(4-methylthiophen-2-yl)ethylidene)acetohydrazide], for which the pEC50 in the data set with HIV-1 is 4.88. In addition, the IC50 at 5 day is > 100 µM in data set [1], 6 µM in data set [2] and 18.3 µM in the data set “in vitro”.
For the molecule `CC(=NNC(=O)CN1c2c(-c3ccccc3)n[nH]c2-c2ccccc2S1(=O)=O)c1cc(C)oc1C` [5t, N′-(1-(2,5-dimethylfuran-3-yl)ethylidene)-2-(5,5-dioxido-3-phenylbenzo[e]pyrazolo[4,3-c][1,2]thiazin-4(1H)-yl)acetohydrazide], the 50% inhibitory concentration (IC50) at 5 day in data set [1] is 17.3 µM; in data set [2], 41.4 µM; in the data set “in vitro” it was 9.9 µM.
Regarding `CC(=NNC(=O)CN1c2c(-c3ccccc3)n[nH]c2-c2ccccc2S1(=O)=O)c1ccc(Cl)s1` [5g, N′-(1-(5-chlorothiophen-2-yl)ethylidene)-2-(5,5-dioxido-3-phenylbenzo[e]pyrazolo[4,3-c][1,2]thiazin-4(1H)-yl)acetohydrazide], the IC50 at 5 day in data set [1] was 13.9 µM; in data set [2], 57.4 µM; in “in vitro” it was 8.4 µM.
As to `CC(=NNC(=O)CN1c2c(-c3ccccc3)n[nH]c2-c2ccccc2S1(=O)=O)c1cc2ccccc2o1` [5n, N′-(1-(benzofuran-2-yl)ethylidene)-2-(5,5-dioxido-3-phenylbenzo[e]pyrazolo[4,3-c][1,2]thiazin-4(1H)-yl)acetohydrazide], in the data set on HIV-1, the “anti-HIV-1 activity (in words)” value is “inactive”. The IC50 at 5 day in data set [1] is > 100 µM; in data set [2], 23 µM; in “in vitro”, 22.4 µM.
On to `CC(=NNC(=O)CN1c2c(-c3ccccc3)n[nH]c2-c2ccccc2S1(=O)=O)c1ccc([N+](=O)[O-])s1` [5r, 2-(5,5-Dioxido-3-phenylbenzo[e]pyrazolo[4,3-c][1,2]thiazin-4(1H)-yl)-N′-(1-(5-nitrothiophen-2-yl)ethylidene)acetohydrazide], for which the figures for the IC50 at 5 day (in data set [1]; in data set [2]; in “in vitro”) were 85 µM, 43.6 µM and 5 µM, respectively.
In the same order, the values of `CC(=NNC(=O)CN1c2c(-c3ccccc3)n[nH]c2-c2ccccc2S1(=O)=O)c1ccc2ccccc2c1` [5l, 2-(5,5-Dioxido-3-phenylbenzo[e]pyrazolo[4,3-c][1,2]thiazin-4(1H)-yl)-N′-(1-(naphthalen-2-yl)ethylidene)acetohydrazide] are 12.2 µM, < 1 µM and 24.2 µM.
Consider `O=C(CN1c2c(-c3ccccc3)n[nH]c2-c2ccccc2S1(=O)=O)NN=Cc1cccs1` [5w, 2-(5,5-Dioxido-3-phenylbenzo[e]pyrazolo[4,3-c][1,2]thiazin-4(1H)-yl)-N′-(thiophen-2-ylmethylene)acetohydrazide], for which the IC50 at 5 day in data set [1] turned out to be 30.6 µM; in data set [2], 41.8 µM; in “in vitro” it was 13.9 µM. Further, the “toxicity in primary human PBM cells (in words)” value in the data set with primary human PBM cells is given as “no toxicity”. The “toxicity in VERO cells (in words)” value in the data set with VERO cells is recorded as “no toxicity”.
For the molecule `CC(=NNC(=O)CN1c2c(-c3ccccc3)n[nH]c2-c2ccccc2S1(=O)=O)c1ccsc1` [5c, 2-(5,5-Dioxido-3-phenylbenzo[e]pyrazolo[4,3-c][1,2]thiazin-4(1H)-yl)-N′-(1-(thiophen-3-yl)ethylidene)acetohydrazide], the IC50 at 5 day in data set [1] was 73.2 µM; in data set [2], 78.7 µM; in “in vitro” it was 10.7 µM. The “toxicity in primary human PBM cells (in words)” value in the data set with primary human PBM cells is “no toxicity”. In the data set on VERO cells, the “toxicity in VERO cells (in words)” value is “no toxicity”.
